Broadly, the EC90 is the point of the concentration-response curve where the effect stands at 90%.

The source of these data is ChEMBL document CHEMBL1141251, “Anthelmintic macrolactams from Nonomuraea turkmeniaca MA7364” (2007).

The test system of test [1] is Haemonchus contortus. The test can be described thus: Anthelmintic activity against Haemonchus contortus assessed as reduction in L3 larval motility. The format is functional.
In test [2] the test system is Heligmosomoides polygyrus. Description: Anthelmintic activity in Heligmosomoides polygyrus infected Swiss Webster mouse assessed as reduction in worm count at 50 mg/kg, sc on day 3 relative to control. The test is classed as functional.

Converted amounts (≈) assume the structure as drawn. The source made the active and inactive calls. No cut-off for these calls is given here.

For `CCC1CCCCCC[C@H](O[C@@H]2O[C@@H](C)[C@@H](O)[C@@H](NC)[C@H]2O)[C@@H](C)C(=O)NCCC1` (some centres undefined), the EC90 in test [1] worked out at 15 µg/mL (≈ 35 µM). The outcome in test [2] was inactive.

Turning to `CCC1CCCNC(=O)[C@H](C)[C@@H](O[C@@H]2O[C@@H](C)[C@@H](O)[C@@H](NC)[C@H]2O)CCC(C)CCC1` (some centres undefined), the EC90 in test [1] amounted to 29 µg/mL (≈ 65.5 µM). Further, the Activity in test [2] (route subcutaneous) turned out to be 42%.
